Results: BigSolDB 2.1

O=C1C=CC(=O)N1c1ccccc1Br
solubility (mole fraction)
Settings | 278.15 K | 283.15 K | 288.15 K | 293.15 K | 298.15 K | 303.15 K | 308.15 K | 313.15 K | 318.15 K | 323.15 K
in DMF | 0.141 | 0.163 | 0.189 | 0.219 | 0.253 | 0.284 | 0.318 | 0.363 | 0.411 | 0.473
in DMSO | – | – | – | 0.156 | 0.177 | 0.21 | 0.238 | 0.288 | 0.327 | 0.387
in NMP | 0.117 | 0.131 | 0.154 | 0.179 | 0.212 | 0.245 | 0.284 | 0.324 | 0.372 | 0.424
in acetone | 0.0947 | 0.108 | 0.125 | 0.144 | 0.164 | 0.19 | 0.223 | 0.263 | 0.306 | 0.356
in acetonitrile | 0.0291 | 0.0347 | 0.0422 | 0.0521 | 0.0621 | 0.0723 | 0.0857 | 0.103 | 0.121 | 0.139
in cyclohexane | 0.00188 | 0.00224 | 0.00275 | 0.00344 | 0.00403 | 0.00487 | 0.00597 | 0.00744 | 0.00927 | 0.0117
in ethanol | 0.0113 | 0.0134 | 0.0163 | 0.0204 | 0.0245 | 0.0287 | 0.0341 | 0.0411 | 0.0481 | 0.0556
in ethylene glycol | 0.00377 | 0.00451 | 0.0055 | 0.00661 | 0.00819 | 0.00983 | 0.0115 | 0.0134 | 0.016 | 0.0184
in isobutanol | 0.00649 | 0.00819 | 0.00989 | 0.0117 | 0.0141 | 0.0173 | 0.0204 | 0.0234 | 0.0276 | 0.0328
in isopropanol | 0.00861 | 0.0104 | 0.0126 | 0.0157 | 0.019 | 0.0221 | 0.0261 | 0.0317 | 0.0375 | 0.0429
in methanol | 0.0134 | 0.0162 | 0.0199 | 0.0249 | 0.03 | 0.0356 | 0.0421 | 0.0514 | 0.0604 | 0.0702
in n-butanol | 0.00586 | 0.00717 | 0.00848 | 0.0106 | 0.0127 | 0.0147 | 0.0172 | 0.021 | 0.0247 | 0.0284
in n-propanol | 0.00717 | 0.00866 | 0.0106 | 0.0132 | 0.016 | 0.0187 | 0.0225 | 0.0271 | 0.0323 | 0.0372
in water | 0.000175 | 0.000217 | 0.000277 | 0.000348 | 0.000443 | 0.000543 | 0.000684 | 0.000812 | 0.000979 | 0.00119
